Test results: ChEMBL document CHEMBL1142059, “Excelsione, a depsidone from an endophytic fungus isolated from the New Zealand endemic tree Knightia excelsa” (J Nat Prod, 2007); call rule not given here

Tested on: P388
Experiment: Cytotoxicity against mouse P388 cells at 12.5 ug/mL
Format: cell-based

SMILES: Cc1cc(O)c(CO)c2c1C(=O)Oc1c(C)c3c(c(O)c1O2)C(=O)OC3 [EXCELSIONE]
- Activity: Not Active
